Reference: ChEMBL document CHEMBL1127323, “Isosteric phosphonate analogs of ET-16-OMe. Synthesis and biological evaluation of the enantiomers of 2'-(trimethylammonio)ethyl 4-(hexadecyloxy)-3-methoxybutanephosphonate and 2'-(trimethylammonio)ethyl 4-(hexadecylthio)-3-methoxybutanephosphonate” (J Med Chem, 1994)

Columns and labels:
[1] = tested on: P388; assay: Inhibitory activity against adriamycin-sensitive and resistant cells in P388 and P388-ADR cells; format: functional, cell-based; conditions: Mus musculus
[2] = tested on: L1210; assay: Inhibitory activity against L1210 growth using clonogenic assay; format: functional, cell-based; conditions: Mus musculus
[3] = organism: Mus musculus; assay: Inhibitory activity against murine leukemia; format: functional, organism-based

IC50 [1] [nM]	IC50 [2] [nM]	IC50 [3] [nM]	SMILES
2500	2500	1000	CCCCCCCCCCCCCCCCOC[C@H](CCP(=O)([O-])OCC[N+](C)(C)C)OC
–	–	1000	CCCCCCCCCCCCCCCCSC[C@H](CCP(=O)([O-])OCC[N+](C)(C)C)OC
